{
  "source": "paper PMC6910976",
  "about": "(ACS infectious diseases, 2019)",
  "test_in_all_cases": "UPLC-high resolution MS of intact protein",
  "format_in_all_cases": "binding",
  "conditions_in_all_cases": "covalent; 2 uM enzyme, 50 uM drug, 25 mM Tris pH 8.0, 5 h, 20 °C",
  "key": {"LdtA": {"target": "T1, LdtA (Mycolicibacterium smegmatis, UniProt A0QY44)", "T1 sequence (A0QY44 41-259)": "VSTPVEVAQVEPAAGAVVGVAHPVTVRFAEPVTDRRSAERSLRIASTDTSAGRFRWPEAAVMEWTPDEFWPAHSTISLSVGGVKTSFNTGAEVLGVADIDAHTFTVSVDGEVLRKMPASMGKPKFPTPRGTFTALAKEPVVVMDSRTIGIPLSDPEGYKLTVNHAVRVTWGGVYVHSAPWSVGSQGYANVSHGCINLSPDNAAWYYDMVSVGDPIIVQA"}, "LdtF": {"target": "T2, LdtF (Mycolicibacterium smegmatis, UniProt A0QS24)", "T2 sequence (A0QS24 31-420)": "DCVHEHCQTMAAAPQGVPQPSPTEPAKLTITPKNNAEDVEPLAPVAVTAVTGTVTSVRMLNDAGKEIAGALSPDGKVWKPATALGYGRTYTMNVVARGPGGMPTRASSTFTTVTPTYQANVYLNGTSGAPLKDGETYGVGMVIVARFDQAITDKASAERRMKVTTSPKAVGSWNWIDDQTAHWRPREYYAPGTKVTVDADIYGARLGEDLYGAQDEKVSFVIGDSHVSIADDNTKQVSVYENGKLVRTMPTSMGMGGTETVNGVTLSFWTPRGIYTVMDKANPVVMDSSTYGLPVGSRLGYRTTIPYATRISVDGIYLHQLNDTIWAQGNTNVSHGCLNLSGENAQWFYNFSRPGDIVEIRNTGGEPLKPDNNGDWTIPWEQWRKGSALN"}, "LdtB": {"target": "T3, LdtB (Mycolicibacterium smegmatis, UniProt A0R1G6)", "T3 sequence (A0R1G6 27-400)": "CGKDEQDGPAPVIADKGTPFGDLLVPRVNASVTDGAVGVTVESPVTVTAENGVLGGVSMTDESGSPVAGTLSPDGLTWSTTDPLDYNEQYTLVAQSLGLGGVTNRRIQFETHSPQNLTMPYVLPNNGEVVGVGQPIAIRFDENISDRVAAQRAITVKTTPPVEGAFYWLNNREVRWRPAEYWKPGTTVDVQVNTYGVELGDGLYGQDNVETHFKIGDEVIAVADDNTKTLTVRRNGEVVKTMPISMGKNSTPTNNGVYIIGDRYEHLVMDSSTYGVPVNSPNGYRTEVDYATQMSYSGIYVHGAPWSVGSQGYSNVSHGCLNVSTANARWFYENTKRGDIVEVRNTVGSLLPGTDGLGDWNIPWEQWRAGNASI"}},
  "data": [
    {"smiles": "C[C@@H](O)[C@H]1C(=O)N2C(C(=O)[O-])=C(SC3Cn4cnc[n+]4C3)[C@H](C)[C@H]12", "note": "(stereo partly shown) [biapenem]", "values": [
      {"measurement": "UPLC-high resolution MS of intact protein", "setting": "LdtA", "value": "fully acylated by the (carba)penems faropenem, biapenem, doripenem, and meropenem"},
      {"measurement": "UPLC-high resolution MS of intact protein", "setting": "LdtF", "value": "small amounts of apo-LdtF remained following incubation with biapenem, doripenem, and faropenem"},
      {"measurement": "UPLC-high resolution MS of intact protein", "setting": "LdtB", "value": "fully acylated by the (carba)penems faropenem, biapenem, doripenem, and meropenem"}
    ]},
    {"smiles": "C[C@@H](O)[C@H]1C(=O)N2C(C(=O)O)=C(S[C@@H]3CN[C@H](CNS(N)(=O)=O)C3)[C@H](C)[C@H]12", "note": "[doripenem]", "values": [
      {"measurement": "UPLC-high resolution MS of intact protein", "setting": "LdtF", "value": "small amounts of apo-LdtF remained following incubation with biapenem, doripenem, and faropenem"}
    ]},
    {"smiles": "C[C@@H](O)[C@H]1C(=O)N2C(C(=O)O)=C([C@H]3CCCO3)S[C@H]12", "note": "[faropenem]", "values": [
      {"measurement": "UPLC-high resolution MS of intact protein", "setting": "LdtA", "value": "fully acylated by the (carba)penems faropenem, biapenem, doripenem, and meropenem"},
      {"measurement": "UPLC-high resolution MS of intact protein", "setting": "LdtF", "value": "small amounts of apo-LdtF remained following incubation with biapenem, doripenem, and faropenem"},
      {"measurement": "UPLC-high resolution MS of intact protein", "setting": "LdtB", "value": "fully acylated by the (carba)penems faropenem, biapenem, doripenem, and meropenem"}
    ]},
    {"smiles": "C[C@@H](O)[C@H]1C(=O)N2C(C(=O)O)=C(S[C@@H]3CN[C@H](C(=O)N(C)C)C3)[C@H](C)[C@H]12", "note": "[meropenem]", "values": [
      {"measurement": "UPLC-high resolution MS of intact protein", "setting": "LdtA", "value": "fully acylated by the (carba)penems faropenem, biapenem, doripenem, and meropenem"},
      {"measurement": "UPLC-high resolution MS of intact protein", "setting": "LdtF", "value": "only meropenem completely acylates LdtF under the same conditions"},
      {"measurement": "UPLC-high resolution MS of intact protein", "setting": "LdtB", "value": "fully acylated by the (carba)penems faropenem, biapenem, doripenem, and meropenem"}
    ]}
  ]
}
